In patent US9738634B2, “Heterocyclic amide compound and herbicide” (SYNGENTA PARTICIPATIONS AG, priority 2013, dated 2017):

Experiments:
Assay type in all cases: in vivo
barnyard grass [1] = assay: Test Example 1: weedkilling efficacy, preemergent weed treatment in the submerged state; A: barnyard grass; details: treatment dosage 252 g/ha
In short: (§1)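 Visual scores against set criteria were taken 3 weeks after treatment. Compounds, as diluted emulsions at specified g/ha, went onto the water surface of 4 cm-flooded alluvial soil pots on the day weeds were sown and 2.5-leaf rice was transplanted; greenhouse held 25–30 °C.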

bulrush [2] = assay: Test Example 1: weedkilling efficacy, preemergent weed treatment in the submerged state; B: bulrush; details: treatment dosage 252 g/ha
In short: as §1

oval-leafed pondweed [3] = assay: Test Example 1: weedkilling efficacy, preemergent weed treatment in the submerged state; C: oval-leafed pondweed; details: treatment dosage 252 g/ha
In short: as §1

transplanted rice = assay: Test Example 1: preemergent weed treatment in the submerged state, effect on crop; a: transplanted rice; details: treatment dosage 252 g/ha
In short: as §1

barnyard grass [4] = assay: Test Example 2: weedkilling efficacy, growth period weed treatment in the submerged state; A: barnyard grass; details: treatment dosage 252 g/ha
In short: (§2)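 Barnyard grass, bulrush and oval-leafed pondweed sown in alluvial soil under 4 cm flooding, greenhouse 25 to 30° C. At 1-2 leaf stage, water-diluted emulsion applied to the water surface at stated g/ha dosages; effects scored 3 weeks later.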

bulrush [5] = assay: Test Example 2: weedkilling efficacy, growth period weed treatment in the submerged state; B: bulrush; details: treatment dosage 252 g/ha
In short: as §2

oval-leafed pondweed [6] = assay: Test Example 2: weedkilling efficacy, growth period weed treatment in the submerged state; C: oval-leafed pondweed; details: treatment dosage 252 g/ha
In short: as §2

crabgrass [7] = assay: Test Example 3: weedkilling efficacy through soil treatment; D: crabgrass; details: treatment dosage 315 g/ha
In short: (§3)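 Crop and weed responses were judged three weeks after a uniform surface spray of the water-diluted emulsion at the given g/ha rate. Seeds sat beneath about 1.5 cm of sterilized diluvial soil, and boxes stood in a greenhouse at 25 to 30° C.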

green foxtail [8] = assay: Test Example 3: weedkilling efficacy through soil treatment; E: green foxtail; details: treatment dosage 315 g/ha
In short: as §3

wild oat = assay: Test Example 3: weedkilling efficacy through soil treatment; G: wild oat; details: treatment dosage 315 g/ha
In short: as §3

black-grass [9] = assay: Test Example 3: weedkilling efficacy through soil treatment; H: black-grass; details: treatment dosage 315 g/ha
In short: as §3

Italian ryegrass [10] = assay: Test Example 3: weedkilling efficacy through soil treatment; I: Italian ryegrass; details: treatment dosage 315 g/ha
In short: as §3

Indian mallow [11] = assay: Test Example 3: weedkilling efficacy through soil treatment; K: Indian mallow; details: treatment dosage 315 g/ha
In short: as §3

redroot pigweed [12] = assay: Test Example 3: weedkilling efficacy through soil treatment; L: redroot pigweed; details: treatment dosage 315 g/ha
In short: as §3

fig-leafed goosefoot [13] = assay: Test Example 3: weedkilling efficacy through soil treatment; M: fig-leafed goosefoot; details: treatment dosage 315 g/ha
In short: as §3

chickweed [14] = assay: Test Example 3: weedkilling efficacy through soil treatment; N: chickweed; details: treatment dosage 315 g/ha
In short: as §3

birds-eye speedwell [15] = assay: Test Example 3: weedkilling efficacy through soil treatment; p: birds-eye speedwell; details: treatment dosage 315 g/ha
In short: as §3

directly sown rice [16] = assay: Test Example 3: soil treatment, effect on crop; b: directly sown rice; details: treatment dosage 315 g/ha
In short: as §3

corn [17] = assay: Test Example 3: soil treatment, effect on crop; c: corn; details: treatment dosage 315 g/ha
In short: as §3

soybean [18] = assay: Test Example 3: soil treatment, effect on crop; d: soybean; details: treatment dosage 315 g/ha
In short: as §3

wheat [19] = assay: Test Example 3: soil treatment, effect on crop; e: wheat; details: treatment dosage 315 g/ha
In short: as §3

beet [20] = assay: Test Example 3: soil treatment, effect on crop; f: beet; details: treatment dosage 315 g/ha
In short: as §3

crabgrass [21] = assay: Test Example 4: weedkilling efficacy by foliar treatment; D: crabgrass; details: treatment dosage 315 g/ha
In short: (§4)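 Seeds are spot-sown into sterilized diluvial soil and covered with about 1.5 cm of soil. After 14 days' greenhouse growth at 25 to 30° C, plants are sprayed on stems and leaves with diluted emulsion at the stated g/ha rate, then scored at 3 weeks.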

green foxtail [22] = assay: Test Example 4: weedkilling efficacy by foliar treatment; E: green foxtail; details: treatment dosage 315 g/ha
In short: as §4

black-grass [23] = assay: Test Example 4: weedkilling efficacy by foliar treatment; H: black-grass; details: treatment dosage 315 g/ha
In short: as §4

Italian ryegrass [24] = assay: Test Example 4: weedkilling efficacy by foliar treatment; I: Italian ryegrass; details: treatment dosage 315 g/ha
In short: as §4

Indian mallow [25] = assay: Test Example 4: weedkilling efficacy by foliar treatment; K: Indian mallow; details: treatment dosage 315 g/ha
In short: as §4

redroot pigweed [26] = assay: Test Example 4: weedkilling efficacy by foliar treatment; L: redroot pigweed; details: treatment dosage 315 g/ha
In short: as §4

fig-leafed goosefoot [27] = assay: Test Example 4: weedkilling efficacy by foliar treatment; M: fig-leafed goosefoot; details: treatment dosage 315 g/ha
In short: as §4

chickweed [28] = assay: Test Example 4: weedkilling efficacy by foliar treatment; N: chickweed; details: treatment dosage 315 g/ha
In short: as §4

catchweed = assay: Test Example 4: weedkilling efficacy by foliar treatment; O: catchweed; details: treatment dosage 315 g/ha
In short: as §4

birds-eye speedwell [29] = assay: Test Example 4: weedkilling efficacy by foliar treatment; p: birds-eye speedwell; details: treatment dosage 315 g/ha
In short: as §4

directly sown rice [30] = assay: Test Example 4: foliar treatment, effect on crop; b: directly sown rice; details: treatment dosage 315 g/ha
In short: as §4

corn [31] = assay: Test Example 4: foliar treatment, effect on crop; c: corn; details: treatment dosage 315 g/ha
In short: as §4

soybean [32] = assay: Test Example 4: foliar treatment, effect on crop; d: soybean; details: treatment dosage 315 g/ha
In short: as §4

wheat [33] = assay: Test Example 4: foliar treatment, effect on crop; e: wheat; details: treatment dosage 315 g/ha
In short: as §4

beet [34] = assay: Test Example 4: foliar treatment, effect on crop; f: beet; details: treatment dosage 315 g/ha
In short: as §4

SMILES: CC1=C(c2ccsc2)C(=O)N(C(C)(C)C(=O)Nc2nc(C(C)C)ns2)CO1 [B-1-03]
- A (barnyard grass) weedkilling efficacy grade (barnyard grass [1]): 5 (weed kill ratio 90% or more, (practically complete withering))
- B (bulrush) weedkilling efficacy grade (bulrush [2]): 5 (weed kill ratio 90% or more, (practically complete withering))
- C (oval-leafed pondweed) weedkilling efficacy grade (oval-leafed pondweed [3]): 5 (weed kill ratio 90% or more, (practically complete withering))
- a (transplanted rice) effect on crop grade (transplanted rice): 3 (weed kill ratio 40% or more, less than 70%)
- A (barnyard grass) weedkilling efficacy grade (barnyard grass [4]): 5 (weed kill ratio 90% or more, (practically complete withering))
- B (bulrush) weedkilling efficacy grade (bulrush [5]): 5 (weed kill ratio 90% or more, (practically complete withering))
- C (oval-leafed pondweed) weedkilling efficacy grade (oval-leafed pondweed [6]): 5 (weed kill ratio 90% or more, (practically complete withering))
- D (crabgrass) weedkilling efficacy grade (crabgrass [7]): 5 (weed kill ratio 90% or more, (practically complete withering))
- E (green foxtail) weedkilling efficacy grade (green foxtail [8]): 5 (weed kill ratio 90% or more, (practically complete withering))
- G (wild oat) weedkilling efficacy grade (wild oat): 5 (weed kill ratio 90% or more, (practically complete withering))
- H (black-grass) weedkilling efficacy grade (black-grass [9]): 5 (weed kill ratio 90% or more, (practically complete withering))
- I (Italian ryegrass) weedkilling efficacy grade (Italian ryegrass [10]): 5 (weed kill ratio 90% or more, (practically complete withering))
- K (Indian mallow) weedkilling efficacy grade (Indian mallow [11]): 4 (weed kill ratio 70% or more, less than 90%)
- L (redroot pigweed) weedkilling efficacy grade (redroot pigweed [12]): 4 (weed kill ratio 70% or more, less than 90%)
- M (fig-leafed goosefoot) weedkilling efficacy grade (fig-leafed goosefoot [13]): 5 (weed kill ratio 90% or more, (practically complete withering))
- N (chickweed) weedkilling efficacy grade (chickweed [14]): 3 (weed kill ratio 40% or more, less than 70%)
- P (birds-eye speedwell) weedkilling efficacy grade (birds-eye speedwell [15]): 5 (weed kill ratio 90% or more, (practically complete withering))
- b (directly sown rice) effect on crop grade (directly sown rice [16]): 5 (weed kill ratio 90% or more, (practically complete withering))
- c (corn) effect on crop grade (corn [17]): 0 (weed kill ratio 5% or less (practically no effect))
- d (soybean) effect on crop grade (soybean [18]): 0 (weed kill ratio 5% or less (practically no effect))
- e (wheat) effect on crop grade (wheat [19]): 3 (weed kill ratio 40% or more, less than 70%)
- f (beet) effect on crop grade (beet [20]): 3 (weed kill ratio 40% or more, less than 70%)
- D (crabgrass) weedkilling efficacy grade (crabgrass [21]): 4 (weed kill ratio 70% or more, less than 90%)
- E (green foxtail) weedkilling efficacy grade (green foxtail [22]): 4 (weed kill ratio 70% or more, less than 90%)
- H (black-grass) weedkilling efficacy grade (black-grass [23]): 5 (weed kill ratio 90% or more, (practically complete withering))
- I (Italian ryegrass) weedkilling efficacy grade (Italian ryegrass [24]): 5 (weed kill ratio 90% or more, (practically complete withering))
- K (Indian mallow) weedkilling efficacy grade (Indian mallow [25]): 4 (weed kill ratio 70% or more, less than 90%)
- L (redroot pigweed) weedkilling efficacy grade (redroot pigweed [26]): 4 (weed kill ratio 70% or more, less than 90%)
- M (fig-leafed goosefoot) weedkilling efficacy grade (fig-leafed goosefoot [27]): 5 (weed kill ratio 90% or more, (practically complete withering))
- N (chickweed) weedkilling efficacy grade (chickweed [28]): 3 (weed kill ratio 40% or more, less than 70%)
- O (catchweed) weedkilling efficacy grade (catchweed): 3 (weed kill ratio 40% or more, less than 70%)
- P (birds-eye speedwell) weedkilling efficacy grade (birds-eye speedwell [29]): 4 (weed kill ratio 70% or more, less than 90%)
- b (directly sown rice) effect on crop grade (directly sown rice [30]): 4 (weed kill ratio 70% or more, less than 90%)
- c (corn) effect on crop grade (corn [31]): 2 (weed kill ratio 20% or more, less than 40%)
- d (soybean) effect on crop grade (soybean [32]): 4 (weed kill ratio 70% or more, less than 90%)
- e (wheat) effect on crop grade (wheat [33]): 0 (weed kill ratio 5% or less (practically no effect))
- f (beet) effect on crop grade (beet [34]): 3 (weed kill ratio 40% or more, less than 70%)

SMILES: COc1nsc(NC(=O)C(C)(C)N2COC(C)=C(c3ccsc3)C2=O)n1 [B-1-04]
- A (barnyard grass) weedkilling efficacy grade (barnyard grass [1]): 5 (weed kill ratio 90% or more, (practically complete withering))
- B (bulrush) weedkilling efficacy grade (bulrush [2]): 5 (weed kill ratio 90% or more, (practically complete withering))
- C (oval-leafed pondweed) weedkilling efficacy grade (oval-leafed pondweed [3]): 5 (weed kill ratio 90% or more, (practically complete withering))
- a (transplanted rice) effect on crop grade (transplanted rice): 0 (weed kill ratio 5% or less (practically no effect))
- A (barnyard grass) weedkilling efficacy grade (barnyard grass [4]): 5 (weed kill ratio 90% or more, (practically complete withering))
- B (bulrush) weedkilling efficacy grade (bulrush [5]): 5 (weed kill ratio 90% or more, (practically complete withering))
- C (oval-leafed pondweed) weedkilling efficacy grade (oval-leafed pondweed [6]): 5 (weed kill ratio 90% or more, (practically complete withering))
- D (crabgrass) weedkilling efficacy grade (crabgrass [7]): 5 (weed kill ratio 90% or more, (practically complete withering))
- E (green foxtail) weedkilling efficacy grade (green foxtail [8]): 5 (weed kill ratio 90% or more, (practically complete withering))
- G (wild oat) weedkilling efficacy grade (wild oat): 4 (weed kill ratio 70% or more, less than 90%)
- H (black-grass) weedkilling efficacy grade (black-grass [9]): 5 (weed kill ratio 90% or more, (practically complete withering))
- I (Italian ryegrass) weedkilling efficacy grade (Italian ryegrass [10]): 5 (weed kill ratio 90% or more, (practically complete withering))
- K (Indian mallow) weedkilling efficacy grade (Indian mallow [11]): 3 (weed kill ratio 40% or more, less than 70%)
- L (redroot pigweed) weedkilling efficacy grade (redroot pigweed [12]): 4 (weed kill ratio 70% or more, less than 90%)
- M (fig-leafed goosefoot) weedkilling efficacy grade (fig-leafed goosefoot [13]): 5 (weed kill ratio 90% or more, (practically complete withering))
- N (chickweed) weedkilling efficacy grade (chickweed [14]): 4 (weed kill ratio 70% or more, less than 90%)
- P (birds-eye speedwell) weedkilling efficacy grade (birds-eye speedwell [15]): 5 (weed kill ratio 90% or more, (practically complete withering))
- b (directly sown rice) effect on crop grade (directly sown rice [16]): 4 (weed kill ratio 70% or more, less than 90%)
- c (corn) effect on crop grade (corn [17]): 0 (weed kill ratio 5% or less (practically no effect))
- d (soybean) effect on crop grade (soybean [18]): 0 (weed kill ratio 5% or less (practically no effect))
- e (wheat) effect on crop grade (wheat [19]): 0 (weed kill ratio 5% or less (practically no effect))
- f (beet) effect on crop grade (beet [20]): 4 (weed kill ratio 70% or more, less than 90%)
- D (crabgrass) weedkilling efficacy grade (crabgrass [21]): 4 (weed kill ratio 70% or more, less than 90%)
- E (green foxtail) weedkilling efficacy grade (green foxtail [22]): 4 (weed kill ratio 70% or more, less than 90%)
- H (black-grass) weedkilling efficacy grade (black-grass [23]): 5 (weed kill ratio 90% or more, (practically complete withering))
- I (Italian ryegrass) weedkilling efficacy grade (Italian ryegrass [24]): 5 (weed kill ratio 90% or more, (practically complete withering))
- K (Indian mallow) weedkilling efficacy grade (Indian mallow [25]): 4 (weed kill ratio 70% or more, less than 90%)
- L (redroot pigweed) weedkilling efficacy grade (redroot pigweed [26]): 4 (weed kill ratio 70% or more, less than 90%)
- M (fig-leafed goosefoot) weedkilling efficacy grade (fig-leafed goosefoot [27]): 5 (weed kill ratio 90% or more, (practically complete withering))
- N (chickweed) weedkilling efficacy grade (chickweed [28]): 3 (weed kill ratio 40% or more, less than 70%)
- O (catchweed) weedkilling efficacy grade (catchweed): 4 (weed kill ratio 70% or more, less than 90%)
- P (birds-eye speedwell) weedkilling efficacy grade (birds-eye speedwell [29]): 3 (weed kill ratio 40% or more, less than 70%)
- b (directly sown rice) effect on crop grade (directly sown rice [30]): 4 (weed kill ratio 70% or more, less than 90%)
- c (corn) effect on crop grade (corn [31]): 3 (weed kill ratio 40% or more, less than 70%)
- d (soybean) effect on crop grade (soybean [32]): 0 (weed kill ratio 5% or less (practically no effect))
- e (wheat) effect on crop grade (wheat [33]): 0 (weed kill ratio 5% or less (practically no effect))
- f (beet) effect on crop grade (beet [34]): 5 (weed kill ratio 90% or more, (practically complete withering))
